Drawing on article PMC3802547 (Molecular bioSystems, 2011), this text covers Ki for one molecule.

The assay concerns the target LasB (elastase) (Pseudomonas aeruginosa, UniProt P14756). Briefly: BODIPY-FL casein fluorescence protease assay with purified LasB. It is filed as biochemical.

LasB (elastase), sequence (P14756 198-498): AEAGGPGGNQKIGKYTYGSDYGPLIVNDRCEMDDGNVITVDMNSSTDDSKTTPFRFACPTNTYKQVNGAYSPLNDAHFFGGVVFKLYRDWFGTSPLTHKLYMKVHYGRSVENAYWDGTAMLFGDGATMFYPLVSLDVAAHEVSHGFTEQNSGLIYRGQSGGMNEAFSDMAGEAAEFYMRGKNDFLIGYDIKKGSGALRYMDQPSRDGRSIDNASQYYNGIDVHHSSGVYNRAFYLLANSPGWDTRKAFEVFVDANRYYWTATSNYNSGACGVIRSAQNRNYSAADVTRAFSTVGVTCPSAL

Consider `CCCCCCC[C@@H]1C[C@H]1CCC(=O)O` [compound 4, lyngbyoic acid], for which affinity was put at a Ki of 5.4 µM.
